The source of these data is patent US9303165B2, “Bacteriochlorin imides” (North Carolina State University, priority 2011, dated 2016).

The nature of series [1]: Static fluorescence spectra and fluorescence quantum yield. The format is physicochemical. Particulars: for λQy em: Qy(0,0) emission band, in toluene at room temperature; for Φf fluorescence quantum yield: toluene, room temperature, argon-purged, error ± 7%. On the procedure: (§1) Static absorption and fluorescence measurements were performed as described previously.^69,70 Argon-purged solutions of the samples in toluene with an absorbance of ≦0.10 at the excitation wavelength were used for the fluorescence spectral, quantum yield, and lifetime measurements. Fluorescence lifetimes were obtained using a phase modulation technique and Soret-band excitation^70 or via decay measurements using Soret-region excitation pulses obtained from a nitrogen-pumped dye laser and time-correlated-single-photon-counting detection. Emission measurements employed 2-4 nm excitation- and detection-monochromator bandwidths and 0.2 nm data intervals. Emission spectra were corrected for detection-system spectral response.

Series [2] can be described thus: Singlet excited-state lifetime by fluorescence techniques. Particulars: toluene, room temperature; error ± 7%. It is filed as physicochemical. On the procedure:
as §1

Series [3] can be described thus: Static absorption spectra (Qy(0,0) band). It is filed as physicochemical. Particulars: for λQy abs: Qy(0,0) absorption band, in toluene at room temperature; for λQy/IB: ratio of the peak intensities of the Qy(0,0) and B bands, toluene, room temperature. On the procedure:
as §1

For series [4] the following is noted: cited from earlier work.
The conditions of series [5]: organic solvents; cited from earlier work.
For series [6] the following is noted: cited from earlier work. The source holds these as a separate data set.

SMILES strings stand for the structures. Where two headings read alike, the source gives them in different places.

Consider `CC1(C)Cc2cc3ccc(cc4nc(cc5ccc(cc1n2)[nH]5)CC4(C)C)[nH]3` [HBC], for which, in series [1], the λQy em is recorded as 716 nm and the “Φf fluorescence quantum yield” value is on record as 0.17. Besides, the “τs lifetime of the lowest singlet excited state” value (“τs lifetime” for short) in series [2] was 4.0 ns. Also, in series [3], the λQy abs is listed as 713 nm and the λQy/IB stood at 0.85.

Take `CC(=O)O[C@@H]1C[C@@H](O)[C@@H](C)OC1[C@]1(C)C(=O)c2cc3cc(C)c(cc4nc(cc5[nH]c(cc1n2)cc5C)C(=O)[C@@]4(C)C1O[C@H](C)[C@H](O)C[C@H]1OC(C)=O)[nH]3` (some centres unmarked) [tolyporphin A]: the absorption wavelength in series [4] is 678 nm.

With `CCOC(=O)c1c(CC)c2cc3nc(c4c5[nH]c(cc6nc(c(OC)c1[nH]2)CC6(C)C)c(CC)c5C(=O)N(Cc1ccccc1)C4=O)CC3(C)C` [MeOBC-I, 15^2-N-Benzyl-3-ethoxycarbonyl-2,12-diethyl-5-methoxy-8,8,18,18-tetramethyl-bacteriochlorin-13,15-dicarboximide], in series [1], the λQy em is 798 nm and the “Φf fluorescence quantum yield” value is reported as 0.052. Besides, the “Stokes shift (fluorescence Qy(0,0) to longer wavelength than absorption Qy(0,0))” value (“Stokes shift” for short) in series [1] (in toluene) is given as approximately 5 nm. Further, the “τs lifetime” value in series [2] is recorded as 2.2 ns. For the same molecule, in series [3], the λQy abs is 793 nm and the λQy/IB came to 1.0.

`COc1c2nc(cc3[nH]c4c(c5nc(cc6[nH]c1c(C(C)=O)c6C)C(C)(C)C5)CC(=O)c4c3C)C(C)(C)C2` [MeOBOP, 3-Acetyl-5-methoxy-2,8,8,12,18,18-hexamethylbacterio-13^1-oxophorbine]: in series [1], the λQy em came to 739 nm and the “Φf fluorescence quantum yield” value is 0.19. The “Stokes shift” value in series [1] (in toluene) is approximately 5 nm. Moreover, the “τs lifetime” value in series [2] came out at 4.6 ns. In series [3], the λQy abs worked out at 733 nm and the λQy/IB is 0.93.

`CCOC(=O)c1c(CC)c2cc3nc(c(OC)c4[nH]c(cc5nc(cc1[nH]2)CC5)c(CC)c4C(=O)OCC)CC3` [MeOBC-EtEs, 2,12-diethyl-3,13-diethoxycarbonyl-5-methoxybacteriochlorin]: in series [1], the λQy em is given as 749 nm and the “Φf fluorescence quantum yield” value stood at 0.17. For the same molecule, in series [1] (in toluene), the “Stokes shift” value was approximately 15 nm. Also, the “τs lifetime” value in series [2] came to 4.3 ns. In series [3], the λQy abs came to 739 nm and the λQy/IB is 1.1.

With `COc1c2nc(cc3ccc(cc4nc(cc5ccc1[nH]5)C(C)(C)C4)[nH]3)C(C)(C)C2` [MeOBC], in series [1], the λQy em is reported as 711 nm and the “Φf fluorescence quantum yield” value amounted to 0.25. In addition, the “τs lifetime” value in series [2] turned out to be 5.0 ns. Besides, in series [3], the λQy abs is recorded as 709 nm and the λQy/IB is 0.87.

Consider `CC[C@H]1c2cc3[nH]c4c(c3C)C(=O)[C@H](C(=O)OC)c4c3nc(cc4[nH]c(cc(n2)[C@@H]1C)c(C(C)=O)c4C)[C@@H](C)[C@@H]3CCC(=O)OC/C=C(\C)CCC[C@H](C)CCC[C@H](C)CCCC(C)C` [BPh-a, Bacteriopheophytin a], for which the “Qy(0,0) absorption” value in series [4] (hydrocarbon / organic solvents) was 750-760 nm. In addition, in series [1], the λQy em is recorded as 768 nm and the “Φf fluorescence quantum yield” value came to 0.10. The “τs lifetime” value in series [2] was found to be 2.7 ns. The “average singlet excited-state lifetime” value in series [5] is given as 2.0-2.7 ns. In series [3], the λQy abs is on record as 758 nm and the λQy/IB stood at 0.69.

Consider `CC(=O)c1c(C)c2cc3nc(cc4[nH]c(cc5nc(cc1[nH]2)CC5(C)C)c(C)c4C(C)=O)CC3(C)C` [HBC-MeA, 3,13-Diacetyl-2,8,8,12,18,18-hexamethylbacteriochlorin], for which the λQy abs in series [3] is 766 nm.

As for `CC[C@H]1c2cc3[nH]c4c(c5nc(cc6[nH]c(cc(n2)[C@@H]1C)c(C(C)=O)c6C)[C@@H](C)[C@@H]5CCC(=O)OC)CC(=O)c4c3C` [methyl bacteriopyropheophorbide a], the “Qy(0,0) absorption” value in series [4] (in CH2Cl2) is recorded as 754 nm.

`C=Cc1c(C)c2cc3nc(c4c5[n-]c(cc6nc(cc1[n-]2)C(C)=C6CC)c(C)c5C(=O)[C@@H]4C(=O)OC)[C@@H](CCC(=O)OC/C=C(\C)CCC[C@H](C)CCC[C@H](C)CCCC(C)C)[C@@H]3C.[Mg+2]` [chlorophyll a]: the “Φf of quantum yield standard” value in series [1] (in toluene) was “same value as in benzene”; in series [6] (in benzene) it was 0.325.

Turning to `C1=Cc2nc1c(-c1ccccc1)c1ccc([nH]1)c(-c1ccccc1)c1nc(c(-c3ccccc3)c3ccc([nH]3)c2-c2ccccc2)C=C1` [free base tetraphenylporphyrin], the “Φf of quantum yield standard” value in series [6] (free base) is 0.090.

For the molecule `CC(=O)c1cc2cc3nc(cc4[nH]c(cc5nc(cc1[nH]2)CC5(C)C)cc4C(C)=O)CC3(C)C` [HBC-A], in series [1], the λQy em is listed as 771 nm and the “Φf fluorescence quantum yield” value was 0.11. Moreover, the “τs lifetime” value in series [2] is 2.9 ns. Besides, in series [3], the λQy abs is 768 nm and the λQy/IB is 1.2.

`COc1c2nc(cc3cc(C(C)=O)c(cc4nc(cc5cc(C(C)=O)c1[nH]5)C(C)(C)C4)[nH]3)C(C)(C)C2` [MeOBC-A, 3,13-Diacetyl-5-methoxy-8,8,18,18-tetramethylbacteriochlorin]: in series [1], the λQy em worked out at 747 nm and the “Φf fluorescence quantum yield” value was determined as 0.14. The “τs lifetime” value in series [2] turned out to be 3.8 ns. Further, in series [3], the λQy abs is 740 nm and the λQy/IB came out at 0.96.

As to `CCOC(=O)c1c(CC)c2cc3nc(c4c5[nH]c(cc6nc(cc1[nH]2)CC6(C)C)c(CC)c5C(=O)N(Cc1ccccc1)C4=O)CC3(C)C` [HBC-I, 15^2-N-Benzyl-3-ethoxycarbonyl-2,12-diethyl-8,8,18,18-tetramethylbacteriochlorin-13,15-dicarboximide], in series [1], the λQy em came to 823 nm and the “Φf fluorescence quantum yield” value came out at 0.036. The “Stokes shift” value in series [1] (in toluene) is given as approximately 5 nm. In series [2], the “τs lifetime” value turned out to be 1.9 ns. In addition, in series [3], the λQy abs came out at 818 nm and the λQy/IB amounted to 1.3.

As for `COc1c2nc(cc3[nH]c(cc4nc(cc5[nH]c1c(C(C)=O)c5C)C(C)(C)C4)c(C(C)=O)c3C)C(C)(C)C2` [MeOBC-MeA, 3,13-Diacetyl-5-methoxy-2,8,8,12,18,18-hexamethylbacteriochlorin], in series [1], the λQy em amounted to 749 nm and the “Φf fluorescence quantum yield” value is recorded as 0.13. The “τs lifetime” value in series [2] is given as 3.4 ns. Besides, in series [3], the λQy abs is 743 nm and the λQy/IB was determined as 0.95.
